Reference: patent US8664160B2, “Fungicidal mixtures” (BASF SE, priority 2005, dated 2014)

Test system: bentgrass
Assay: Seed treatment of bentgrass: ground coverage by emerged plants
Assay type: in vivo
Details: 20 g a.i./100 kg seed, greenhouse, humid conditions, 7 days after planting, untreated 10.8%
Text: Seeds of bentgrass were seed-treated with the products and concentrations listed. Triticonazol and Pyraclstrobin were used as 200 g/l FS-formulation. Metalaxyl als a 17.7% LS-formulation. Treated sees were planted at the day of treatment and then kept under humid conditions in the greenhouse. 7 days after plating the ground coverage by emerged plants were estimated in percentage.

How did the “% covered ground” value turn out when COCC(=O)N(c1c(C)cccc1C)[C@H](C)C(=O)OC [Metalaxyl-M, metalaxyl-M] was run?
Its value is 36.3%.
